Results: US10434133B2, “Inflammation-suppressing composition including peptide” (KIRIN KABUSHIKI KAISHA, priority 2015, dated 2019)

Tested on: microglia
Assay: TNF-α production of LPS/IFN-γ-stimulated isolated microglia (Test Examples 1 to 3)
Assay type: cell-based, mouse
Conditions: peptides at 10 μM and 50 μM; FIG. 2
Procedure: Microglia were isolated from the mouse brain by the magnetic cell sorting method. Specifically, the brain removed from a mouse was treated with papain to obtain a brain tissue dispersion and the enzyme reaction was stopped. Subsequently, the dispersion was reacted to CD11b antibody (manufactured by Miltenyi Biotec), a common microglia marker magnetically labelled with superparamagnetic microbeads, to carry out magnetic separation whereby microglia were isolated. The isolated microglia cell was cultured for 12 hours in medium to which the above 336 dipeptides were added in a concentration of 50 μM each. Subsequently, 5 ng/ml of lipopolysaccharide (LPS, manufactured by SIGMA-ALDRICH) and 0.5 ng/ml of IFN-γ (manufactured by R&D system) were added thereto, the cell was further cultured for 12 hours and TNF-α contained in the culture supernatant was quantitatively determined using an ELISA kit (manufactured by eBioscience). […] Note that the results are average values of three consecutive data. Additionally, hereinafter the amino acids are shown in one-letter abbreviations. […] Note that, for the control, those cultured with no addition of the peptides were used as in Test Example 1. For comparison, the dipeptides having the same amino acid composition with different sequences, that it, VD and HL were also measured for the TNF-α production at different concentrations.

TDVE: tetrapeptide having DV as the core sequence
inflammation suppression effect against microglia (TNF-α): the most intense
